Measured values reported in PubChem BioAssay (NCI).
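Cells were grown in 96-well plates and exposed to each compound for 48 hours at five concentrations; endpoints were interpolated linearly between bracketing concentrations, or set to the highest concentration if not reached. Abbreviation: GI50, concentration required for 50% inhibition of growth. TGI: concentration producing complete growth inhibition.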

Tests used:
Experiment in all cases: NCI-60 cell line screen, 48 h
LOX IMVI melanoma = tested on: LOX IMVI melanoma
NCI-H522 lung = tested on: NCI-H522 lung
HL-60(TB) leukemia = tested on: HL-60(TB) leukemia
OVCAR-5 ovarian = tested on: OVCAR-5 ovarian
NCI-H226 lung = tested on: NCI-H226 lung
UO-31 renal = tested on: UO-31 renal
786-0 renal = tested on: 786-0 renal
A498 renal = tested on: A498 renal
MOLT-4 leukemia = tested on: MOLT-4 leukemia
MDA-MB-231 breast = tested on: MDA-MB-231 breast

| Compound | TGI (LOX IMVI melanoma) [µM] | TGI (NCI-H522 lung) [µM] | TGI (HL-60(TB) leukemia) [µM] | TGI (OVCAR-5 ovarian) [µM] | TGI (NCI-H226 lung) [µM] | TGI (UO-31 renal) [µM] | TGI (786-0 renal) [µM] | TGI (A498 renal) [µM] | TGI (MOLT-4 leukemia) [µM] | GI50 (LOX IMVI melanoma) [µM] | GI50 (MDA-MB-231 breast) [µM] | TGI (MDA-MB-231 breast) [µM] | GI50 (NCI-H522 lung) [µM] | GI50 (HL-60(TB) leukemia) [µM] | GI50 (OVCAR-5 ovarian) [µM] | GI50 (NCI-H226 lung) [µM] | GI50 (MOLT-4 leukemia) [µM] | GI50 (UO-31 renal) [µM] | GI50 (786-0 renal) [µM] | GI50 (A498 renal) [µM] |
| --- | --- | --- | --- | --- | --- | --- | --- | --- | --- | --- | --- | --- | --- | --- | --- | --- | --- | --- | --- | --- |
| CC1=C(CC/C(C)=C/CCC2(C)CCC([C@H](C)C(=O)O)OO2)C(C)(C)CCC1 (some centres undefined) (tested in a mixture with another compound) | > 100 | > 100 | > 100 | > 100 | > 100 | > 100 | > 100 |  |  |  |  |  |  |  |  |  |  |  |  |  |
| COc1ccc2c(CCNS(=O)(=O)c3ccccc3)c(C(C)=O)[nH]c2c1[N+](=O)[O-] | > 100 | > 100 | > 100 | > 100 | > 100 | > 100 | > 100 | > 100 | > 100 |  |  |  |  |  |  |  |  |  |  |  |
| COC(=O)/C=C\C1C(C(=O)OC)C2(C(=O)OC)CCC1(C(=O)OC)N2 (centres undefined) | 29 | 1.76 | 6.47 | 34.5 | 36.6 | 30.8 | 28.6 | 32.9 | 14.7 |  |  |  |  |  |  |  |  |  |  |  |
| C=CCCC12CCCC(=O)C1Sc1ccc3ccccc3c12 (centres undefined) | 26.5 | 35 | 44.6 | 93.5 | 36.2 | 42.5 | 48.2 | 26.1 | 39.6 |  |  |  |  |  |  |  |  |  |  |  |
| Cc1cc(Cl)ccc1N1C(=O)C(=O)C(c2nc3ccccc3s2)/C(=N\NC(=O)c2ccccc2O)C1=O (centres undefined) | > 100 | > 100 | > 100 | > 100 | > 100 | > 100 | > 100 | > 100 | > 21 |  |  |  |  |  |  |  |  |  |  |  |
| CCCCCCCCCCSS(=O)(=O)c1ccc(C)cc1 | 15.7 | 17.2 | 11.6 | 30.6 | 37.3 | 29 | 17.8 | 35 | 6.73 |  |  |  |  |  |  |  |  |  |  |  |
| COc1ccc2c3c([nH]c2c1[N+](=O)[O-])C(C)N(C(=O)/C=C/c1ccccc1)CC3 (centres undefined) | 42.6 | > 100 | 7.01 | > 100 | 41.3 | > 100 | 25.8 | 8.31 | > 100 |  |  |  |  |  |  |  |  |  |  |  |
| O=C(CN1C(=O)c2ccccc2C1=O)OC1C=CCCC1 (centres undefined) |  | > 100 | > 100 |  | > 100 | > 100 | > 100 | > 100 | > 100 |  |  |  |  |  |  |  |  |  |  |  |
| COC(=O)/C1=C/C2CC(/C=C(/c3ccccc3)C(=O)O1)C2 | 40.3 | 37.9 | 60.6 |  | 44.7 | > 100 | 89.1 |  | 62 |  |  |  |  |  |  |  |  |  |  |  |
| NC(CCc1nc(-c2ccccc2)cs1)C(=O)O (centres undefined) | > 100 | > 100 | > 100 |  | > 100 | > 100 | > 100 | > 100 | > 100 |  |  |  |  |  |  |  |  |  |  |  |
| CC(C)c1cccc2sc(NC(=O)C(=O)CC(=O)c3ccc(F)cc3)nc12 | > 100 | > 100 | > 100 | > 100 | > 100 | > 100 | > 100 | > 100 |  |  |  |  |  |  |  |  |  |  |  |  |
| CC(=O)c1ccc(NCn2nc(-c3ccccc3O)oc2=S)cc1 | 45.5 | > 100 | > 100 | > 100 | 99.3 | > 100 | > 100 |  | > 100 | 22.7 | 37.6 | > 100 | > 100 | > 100 | > 100 | 27.4 | 0.88 | > 100 | 74.1 |  |
| CCC1(c2ccncc2)CCC(=O)NC1=O (centres undefined) | > 100 |  | > 100 | > 100 | > 100 | > 100 | > 100 | > 100 | > 100 |  |  |  |  |  |  |  |  |  |  |  |
| CN1NC(c2ccccc2)=C(C#N)C(=O)CC1c1ccccc1Cl (centres undefined) | > 100 | > 100 | > 100 | > 100 | > 100 |  | > 100 |  | > 100 |  |  |  |  |  |  |  |  |  |  |  |
| CC(=O)[CH-]C(=O)c1ccccc1.CC(=O)[CH-]C(=O)c1ccccc1.CC(C)CCCC(C)[C@H]1CCC2[C@@H]3CCC4C[C@@H]([O-])CC[C@]4(C)C3CC[C@@]21C.CC(C)CCCC(C)[C@H]1CCC2[C@@H]3CCC4C[C@@H]([O-])CC[C@]4(C)C3CC[C@@]21C.Cl.[Ti+4] (some centres undefined) | > 25 | > 25 | 24.9 | > 25 | > 25 | > 25 | > 25 | > 25 | > 25 | > 25 |  |  | > 25 | 8.29 | > 25 | > 25 | > 25 | > 25 | > 25 | > 25 |
| CCC1N2CCCCC2[C@@H]2c3[nH]c4ccccc4c3CCN12 (some centres undefined) |  | > 100 | > 100 | > 100 |  | > 100 | > 100 | > 100 | > 100 |  |  |  |  |  |  |  |  |  |  |  |
| O=C(O/N=C1/CCC/C1=C\c1ccccc1)c1ccc(Cl)cc1 | > 100 | > 100 | > 100 | > 100 | > 100 | > 100 | > 100 | > 100 | > 100 |  |  |  |  |  |  |  |  |  |  |  |
| C/C(=C\c1ccccc1)C(O)S(=O)(=O)O (centres undefined) | > 100 | > 100 | > 100 | > 100 | > 100 | > 100 | > 100 | > 100 | > 100 |  |  |  |  |  |  |  |  |  |  |  |
| C#Cc1cccc(N2C(=O)CC(=P(c3ccccc3)(c3ccccc3)c3ccccc3)C2=O)c1 |  | > 100 | 38.2 | > 100 | > 100 | > 100 | 75.7 | > 100 | > 100 |  |  |  |  |  |  |  |  |  |  |  |
| CCCCn1c(=O)c(/C=C/C(=O)/C=C/c2ccc(O)c(OC)c2)cc2ccc(Cl)cc21 | 2.84 | 3.86 | 13.4 | 4.89 | 4.23 | 2.93 | 3.31 |  | 16.3 | 1.51 | 2.51 | 7.73 | 1.78 | 2.34 | 2.57 | 1.77 | 2.17 | 1.59 | 1.77 |  |
| O=S(O)CCCCSSCCCCS(=O)(O)=S | > 100 | 65.6 |  | > 100 |  | > 100 | > 100 | > 100 | > 100 |  |  |  |  |  |  |  |  |  |  |  |
| Cc1ccc(S(=O)(=O)NC(C)C(=O)O)cc1 (centres undefined) | > 100 | > 100 | > 100 | > 100 | > 100 | > 100 | > 100 | > 100 | > 100 |  |  |  |  |  |  |  |  |  |  |  |
